These are literature values, as cited in patent US20170049851A1, “Method for Medical Treatment” (priority 2015, published 2017).

For the data set the following is noted: healthy as well as unhealthy persons; some adverse effects, largely gastrointestinal, with very high intakes.

Regarding `COC1=C(OC)C(=O)C(C/C=C(\C)CC/C=C(\C)CC/C=C(\C)CC/C=C(\C)CC/C=C(\C)CC/C=C(\C)CC/C=C(\C)CC/C=C(\C)CC/C=C(\C)CCC=C(C)C)=C(C)C1=O` [CoQ10, ubiquinone], the “daily dosage found to be tolerated” value was “up to 3600 mg”.
